In patent publication US5840684A, “Glycopeptide antibiotic derivatives” (Eli Lilly and Company, priority 1995, dated 1998):
In brackets after ≈: the same amount, converted by molar mass.

Key:
[1] = system: Staphylococcus aureus S13E; assay type: cell-based
Method: (§1) The MIC's were determined using a standard broth micro-dilution assay.

[2] = system: Staphylococcus aureus SA1199B; assay type: cell-based
Method: as §1

[3] = system: vancomycin-resistant enterococci; assay: broth micro-dilution, mean geometric MIC; assay type: cell-based, Enterococcus faecium and Enterococcus faecalis; conditions: enterococci, 24-hour incubation
[4] = system: Enterococcus gallinarum 245; assay: broth micro-dilution MIC; assay type: cell-based; conditions: Enterococcus gallinarum 245
Method: (§2) The formula I compounds have in vitro and in vivo activity against Gram-positive pathogenic bacteria. The MIC's were determined using a standard broth micro-dilution assay.

[5] = system: Haemophilus influenzae RD; assay: broth micro-dilution MIC; assay type: cell-based; conditions: Haemophilus influenzae RD
Method: as §2

Entercoccus faecium 2041 = assay: broth micro-dilution MIC; assay type: cell-based; conditions: Entercoccus faecium 2041
Method: as §2

[6] = system: Staphylococcus haemolyticus 415; assay: broth micro-dilution MIC; assay type: cell-based
Method: as §2

[7] = system: Staphylococcus haemolyticus 105; assay: broth micro-dilution MIC; assay type: cell-based
Method: as §2

Escherichia coli EC14 = assay: broth micro-dilution MIC; assay type: cell-based
Method: as §2

[8] = system: Streptococcus pneumoniae P1; assay: broth micro-dilution MIC; assay type: cell-based
Method: as §2

[9] = system: Staphylococcus epidermidis 270; assay: broth micro-dilution MIC; assay type: cell-based
Method: as §2

Entercoccus faecium 180 = assay: broth micro-dilution MIC; assay type: cell-based; conditions: Entercoccus faecium 180
Method: as §2

[10] = system: vancomycin-susceptible enterococci; assay: broth micro-dilution, mean geometric MIC; assay type: cell-based, Enterococcus faecium and Enterococcus faecalis; conditions: enterococci, 24-hour incubation
[11] = system: Streptococcus pyogenes C203; assay: broth micro-dilution MIC; assay type: cell-based
Method: as §1

[12] = system: Staphylococcus aureus SA1199A; assay: broth micro-dilution MIC; assay type: cell-based
Method: as §1

[13] = system: Staphylococcus aureus X400; assay: broth micro-dilution MIC; assay type: cell-based
Method: as §1

[14] = system: Entercoccus faecium 180-1; assay: broth micro-dilution MIC; assay type: cell-based
Method: as §1

[15] = system: Staphylococcus aureus 489; assay: broth micro-dilution MIC; assay type: cell-based
Method: as §1

Entercoccus faecium 276 = assay: broth micro-dilution MIC; assay type: cell-based
Method: as §1

[16] = system: Staphylococcus aureus 491; assay: broth micro-dilution MIC; assay type: cell-based
Method: as §1

[17] = system: Staphylococcus aureus 446; assay: broth micro-dilution MIC; assay type: cell-based
Method: as §1

[18] = system: Staphylococcus aureus 447; assay: broth micro-dilution MIC; assay type: cell-based
Method: as §1

[19] = system: Staphylococcus aureus X778; assay: broth micro-dilution MIC; assay type: cell-based
Method: as §1

[20] = system: Staphylococcus aureus SA1199; assay: broth micro-dilution MIC; assay type: cell-based
Method: as §1

SMILES | MIC [1] | MIC [2] | mean geometric MIC, Vancomycin Resistant Strains [3] | MIC [4] | MIC [5] | MIC (Entercoccus faecium 2041) | MIC [6] | MIC [7] | MIC (Escherichia coli EC14) | MIC [9] | MIC (Entercoccus faecium 180) | mean geometric MIC, Vancomycin Sensitive Strains [10] | MIC [13] | MIC [14] | MIC [15] | MIC (Entercoccus faecium 276) | MIC [16] | MIC [17] | MIC [18] | MIC [19] | also measured
CNC(CC(C)C)C(=O)NC1C(=O)NC(CC(N)=O)C(=O)NC2C(=O)NC3C(=O)NC(C(=O)NC(C(=O)O)c4cc(O)cc(O)c4-c4cc3ccc4O)C(OC3CC(C)(N)C(O)C(C)O3)c3ccc(c(Cl)c3)Oc3cc2cc(c3OC2OC(CO)C(O)C(O)C2OC2CC(C)(NCc3c4ccccc4c(Cl)c4ccccc34)C(O)C(C)O2)Oc2ccc(cc2Cl)C1O (stereo not drawn) [Compound 18] | 1 µg/mL (≈ 0.55 µM) | 2 µg/mL (≈ 1.1 µM) | 6.7 µg/mL | 1 µg/mL (≈ 0.55 µM) | 16 µg/mL (≈ 8.81 µM) | 0.25 µg/mL (≈ 0.138 µM) | 8 µg/mL (≈ 4.4 µM) | 16 µg/mL (≈ 8.81 µM) | > 64 µg/mL | 8 µg/mL (≈ 4.4 µM) | 2 µg/mL (≈ 1.1 µM) | 0.38 µg/mL | 1 µg/mL (≈ 0.55 µM) | ≤ 0.06 µg/mL | 1 µg/mL (≈ 0.55 µM) | 1 µg/mL (≈ 0.55 µM) | 2 µg/mL (≈ 1.1 µM) | 2 µg/mL (≈ 1.1 µM) | 8 µg/mL (≈ 4.4 µM) | 0.5 µg/mL (≈ 0.275 µM) | MIC [8]: ≤ 0.06 µg/mL; MIC [11]: ≤ 0.06 µg/mL; MIC [12]: ≤ 0.06 µg/mL
CNC(CC(C)C)C(=O)NC1C(=O)NC(CC(N)=O)C(=O)NC2C(=O)NC3C(=O)NC(C(=O)NC(C(=O)O)c4cc(O)cc(O)c4-c4cc3ccc4O)C(OC3CC(C)(N)C(O)C(C)O3)c3ccc(c(Cl)c3)Oc3cc2cc(c3OC2OC(CO)C(O)C(O)C2OC2CC(C)(NCc3ccc4ccccc4n3)C(O)C(C)O2)Oc2ccc(cc2Cl)C1O (stereo not drawn) [Compound 30] | 0.125 µg/mL (≈ 0.0721 µM) | 0.125 µg/mL (≈ 0.0721 µM) | 4.7 µg/mL | ≤ 0.06 µg/mL | > 64 µg/mL | ≤ 0.06 µg/mL |  | 4 µg/mL (≈ 2.31 µM) | > 64 µg/mL | 2 µg/mL (≈ 1.15 µM) | 2 µg/mL (≈ 1.15 µM) | 0.071 µg/mL | ≤ 0.06 µg/mL | ≤ 0.06 µg/mL | 0.125 µg/mL (≈ 0.0721 µM) | 0.25 µg/mL (≈ 0.144 µM) | 0.5 µg/mL (≈ 0.288 µM) | 1 µg/mL (≈ 0.577 µM) | 2 µg/mL (≈ 1.15 µM) | ≤ 0.06 µg/mL | MIC [20]: 0.5 µg/mL (≈ 0.288 µM)
CNC(CC(C)C)C(=O)NC1C(=O)NC(CC(N)=O)C(=O)NC2C(=O)NC3C(=O)NC(C(=O)NC(C(=O)O)c4cc(O)cc(O)c4-c4cc3ccc4O)C(OC3CC(C)(N)C(O)C(C)O3)c3ccc(c(Cl)c3)Oc3cc2cc(c3OC2OC(CO)C(O)C(O)C2OC2CC(C)(NCc3ccccn3)C(O)C(C)O2)Oc2ccc(cc2Cl)C1O (stereo not drawn) [Compound 31] |  |  | 9.5 µg/mL |  | > 64 µg/mL |  |  | 4 µg/mL (≈ 2.38 µM) | > 64 µg/mL | 1 µg/mL (≈ 0.594 µM) | 4 µg/mL (≈ 2.38 µM) | 1.2 µg/mL |  | ≤ 0.06 µg/mL | ≤ 0.06 µg/mL |  | 0.5 µg/mL (≈ 0.297 µM) | 0.5 µg/mL (≈ 0.297 µM) | 0.5 µg/mL (≈ 0.297 µM) |  | 
CNC(CC(C)C)C(=O)NC1C(=O)NC(CC(N)=O)C(=O)NC2C(=O)NC3C(=O)NC(C(=O)NC(C(=O)O)c4cc(O)cc(O)c4-c4cc3ccc4O)C(OC3CC(C)(N)C(O)C(C)O3)c3ccc(c(Cl)c3)Oc3cc2cc(c3OC2OC(CO)C(O)C(O)C2OC2CC(C)(NCc3ccc([N+](=O)[O-])cc3)C(O)C(C)O2)Oc2ccc(cc2Cl)C1O (stereo not drawn) [Compound 78] |  | ≤ 0.06 µg/mL | 16 µg/mL | 0.125 µg/mL (≈ 0.0724 µM) |  | ≤ 0.06 µg/mL | 16 µg/mL (≈ 9.26 µM) | 2 µg/mL (≈ 1.16 µM) | > 64 µg/mL | 0.5 µg/mL (≈ 0.289 µM) | 1 µg/mL (≈ 0.579 µM) | 0.76 µg/mL | ≤ 0.06 µg/mL | ≤ 0.06 µg/mL | ≤ 0.06 µg/mL | 0.125 µg/mL (≈ 0.0724 µM) | 0.25 µg/mL (≈ 0.145 µM) | 2 µg/mL (≈ 1.16 µM) | ≤ 0.06 µg/mL | ≤ 0.06 µg/mL | MIC [8]: ≤ 0.06 µg/mL; MIC [11]: ≤ 0.06 µg/mL; MIC [20]: 0.125 µg/mL (≈ 0.0724 µM); MIC [12]: ≤ 0.06 µg/mL
CNC(CC(C)C)C(=O)NC1C(=O)NC(CC(N)=O)C(=O)NC2C(=O)NC3C(=O)NC(C(=O)NC(C(=O)O)c4cc(O)cc(O)c4-c4cc3ccc4O)C(OC3CC(C)(N)C(O)C(C)O3)c3ccc(c(Cl)c3)Oc3cc2cc(c3OC2OC(CO)C(O)C(O)C2OC2CC(C)(NCC3CCCCC3)C(O)C(C)O2)Oc2ccc(cc2Cl)C1O (stereo not drawn) [Compound 161] | 0.125 µg/mL (≈ 0.074 µM) | 0.25 µg/mL (≈ 0.148 µM) | 23 µg/mL | 8 µg/mL (≈ 4.74 µM) |  | ≤ 0.06 µg/mL | 8 µg/mL (≈ 4.74 µM) | 4 µg/mL (≈ 2.37 µM) | > 64 µg/mL | 1 µg/mL (≈ 0.592 µM) | 2 µg/mL (≈ 1.18 µM) | 0.44 µg/mL | 0.5 µg/mL (≈ 0.296 µM) | ≤ 0.06 µg/mL | ≤ 0.06 µg/mL | 0.125 µg/mL (≈ 0.074 µM) | 0.5 µg/mL (≈ 0.296 µM) | 0.5 µg/mL (≈ 0.296 µM) | 1 µg/mL (≈ 0.592 µM) | 0.5 µg/mL (≈ 0.296 µM) | MIC [8]: ≤ 0.06 µg/mL; MIC [11]: ≤ 0.06 µg/mL; MIC [20]: 0.25 µg/mL (≈ 0.148 µM); MIC [12]: ≤ 0.06 µg/mL
CNC(CC(C)C)C(=O)NC1C(=O)NC(CC(N)=O)C(=O)NC2C(=O)NC3C(=O)NC(C(=O)NC(C(=O)O)c4cc(O)cc(O)c4-c4cc3ccc4O)C(OC3CC(C)(NCc4ccc5c(c4)Cc4ccccc4-5)C(O)C(C)O3)c3ccc(c(Cl)c3)Oc3cc2cc(c3OC2OC(CO)C(O)C(O)C2OC2CC(C)(NCc3ccc4c(c3)Cc3ccccc3-4)C(O)C(C)O2)Oc2ccc(cc2Cl)C1O (stereo not drawn) [Compound 279] | 0.25 µg/mL (≈ 0.128 µM) | ≤ 0.06 µg/mL | 2.4 µg/mL | 2 µg/mL (≈ 1.03 µM) | > 64 µg/mL | ≤ 0.06 µg/mL | 2 µg/mL (≈ 1.03 µM) | 4 µg/mL (≈ 2.05 µM) | > 64 µg/mL | 1 µg/mL (≈ 0.513 µM) | ≤ 0.06 µg/mL | 0.11 µg/mL | 0.25 µg/mL (≈ 0.128 µM) | ≤ 0.06 µg/mL |  | 0.125 µg/mL (≈ 0.0641 µM) | 0.25 µg/mL (≈ 0.128 µM) | 0.5 µg/mL (≈ 0.257 µM) | 1 µg/mL (≈ 0.513 µM) | 0.25 µg/mL (≈ 0.128 µM) | MIC [8]: ≤ 0.06 µg/mL; MIC [11]: ≤ 0.06 µg/mL; MIC [20]: 0.5 µg/mL (≈ 0.257 µM); MIC [12]: ≤ 0.06 µg/mL
